Test results: the SangsterLogP compilation

assay: method code SF-AS, from DOI: 10.1016/0048-3575(79)90081-6; conditions: not given

SMILES	logP
COC(=O)c1cccc(N2C(=O)CCC2=O)c1	0.36
O=C1CCC(=O)N1c1cccc(Cl)c1	0.98
O=C1CCC(=O)N1c1ccccc1Cl	0.56
Cc1ccccc1N1C(=O)CCC1=O	0.29
O=C1CCC(=O)N1c1cccc([N+](=O)[O-])c1	0.38
COc1ccccc1N1C(=O)CCC1=O	-0.02
Cc1cccc(N2C(=O)CCC2=O)c1	0.57
O=C1CCC(=O)N1c1cccc(Br)c1	1.09
O=C1CCC(=O)N1c1ccccc1I	0.8
CCc1ccccc1N1C(=O)CCC1=O	0.64
O=C1CCC(=O)N1c1ccc(F)cc1	0.29
O=C1CCC(=O)N1c1ccccc1[N+](=O)[O-]	0.36
O=C1CCC(=O)N1c1ccc([N+](=O)[O-])cc1	0.46
O=C1CCC(=O)N1c1ccc(Cl)cc1	0.96
N#Cc1cccc(N2C(=O)CCC2=O)c1	0.02
O=C1CCC(=O)N1c1cccc(F)c1	0.38
CCc1ccc(N2C(=O)CCC2=O)cc1	1.1
CCc1cccc(N2C(=O)CCC2=O)c1	1.04
O=C1CCC(=O)N1c1ccccc1C(F)(F)F	0.76
O=C1CCC(=O)N1c1ccccc1	0.06
O=C1CCC(=O)N1c1ccccc1Br	0.65
Cc1ccc(N2C(=O)CCC2=O)cc1	0.58
O=C1CCC(=O)N1c1ccc(Br)cc1	1.18
O=C1CCC(=O)N1c1ccccc1F	0.22

same assay, conditions: pH 7.4

SMILES	logD
O=C1CCC(=O)N1c1cccc(I)c1	1.39
